# US10363239B2, “Method for inhibiting growth of cancer cells” (Pain Therapeutics, Inc., priority 2013, dated 2019)
# Legend:
# [1] = system: breast cancer HTB-22 cells; test: [3H]glucose uptake; type: cell-based, human; settings: 0.1-5 nM; 4 days
# Description: (§1) FIG. 1A through FIG. 1M illustrate the effects of various FLNA-binding compounds on glucose uptake in glioblastoma, melanoma, breast and pancreatic cancer cell lines, along with appropriate non-cancerous primary cell controls. Cells were grown in the absence or presence of 0.1-5 nM indicated compounds for 4 days. Following brief washes with PBS, cells were serum-deprived for 4 hours and then incubated in oxygenated Kreb's Ringer containing 0.1 μCi [^3H]glucose for 2 hours under constant oxygenation. The reaction was terminated by removal of the incubation medium, and cells were washed and scraped off to determine the amounts of [^3H]glucose in cells by scintillation spectrometry. […] N=5-6. […] . […] . To determine the effect of Compound C0105 on glucose utilization, the cancer and primary normal cells were plated extremely thinly (10%). Once cells attached, Compound C0105 was added at 0.1, 0.5, 1 or 5 nM in the medium twice daily (6 hours apart) for 4 days. The cells were serum-deprived (glucose deprived) for 2 hours. Cells were then rinsed with 1 ml PBS and glucose uptake was assessed by contacting the cells with [^3H]glucose (0.01 uCi/l ml) in Kreb's Ringer for 2 hours. Cells were then rinsed with 1 ml PBS 3 times, scraped off and their glucose content counted by liquid scintillation spectrophotometry.
# [2] = system: pancreatic cancer MiaPaCa2 cells; test: [3H]glucose uptake; type: cell-based, human; settings: 0.1-5 nM; 4 days
# Description: as §1
# [3] = system: glioblastoma (U-87MG) cells; test: Cell proliferation by cell-cycling markers Ki67 and PCNA (Western blots); type: cell-based, human; settings: 0.1-5 nM; 4 days
# Description: The effect of contact with Compound C0105 on cell proliferation was determined by the levels of cell-cycling markers: Ki67 and PCNA using Western blots in glioblastoma (U-87MG) cells. Cells contacted with vehicle and 0.1-5 nM Compound C0105 for 4 days were collected, washed and solubilized. The resultant cell lysates were size-fractionated on SDS-PAGE and Western blotting to determine the levels of Ki67, PCNA and actin (loading control). The protein bands were quantified using densitometric scanning. […] N=4. *p<0.01 compared to vehicle (open bars).
# To study the effect of Compound C0105 on PI3K activity, the cancer and primary normal cells were cultured to approximately 60-70% confluency, serum deprived for 4 hours, briefly washed with PBS and treated with vehicle or 0.1, 0.5, 1 or 5 nM Compound C0105 for 24 hours with in 0.1% FBS-containing culture medium. The cells were then washed with PBS, scraped off and collected by centrifugation. The cell pellets were sonicated in ice-cold immunoprecipitation buffer and protein concentrations measured by the Bradford method. […]
# Immunoreactivity was visualized by reaction in ECL Plus chemiluminescent reagent for exactly 5 minutes, followed by immediate exposure of the blot to X-ray film (Z & Z Medical). Bands at the relevant molecular masses of Ki67 and PCNA were quantified by densitometric scan. […]
# [4] = system: primary human mammary epithelial cells (HMECs); test: as above; type: cell-based; settings: 0.1-5 nM; 4 days
# Description: The effect of contact with Compound C0105 on cell proliferation was determined by the levels of cell-cycling markers: Ki67 and PCNA using Western blots in HTB-22 and control human mammary epithelial cells (HMECs). Cells treated with vehicle and 0.1-5 nM Compound C0105 for 4 days were collected, washed and solubilized. The resultant cell lysates were size-fractionated on SDS-PAGE and Western blotting to determine the levels of Ki67, PCNA and actin (loading control). The protein bands were quantified using densitometric scanning.
# The effect of C0105 on cell proliferation was determined by the levels of cell-cycling markers Ki67 and PCNA using Western blots in HTB-22 and control HMECs. Cells contacted with vehicle and 0.1-5 nM Compound C0105 for 4 days were collected, washed and solubilized. […] The protein bands were quantified using densitometric scanning. […]
# To study the effect of Compound C0105 on PI3K activity, the cancer and primary normal cells were cultured to approximately 60-70% confluency, serum deprived for 4 hours, briefly washed with PBS and treated with vehicle or 0.1, 0.5, 1 or 5 nM Compound C0105 for 24 hours with in 0.1% FBS-containing culture medium. […] The cell pellets were sonicated in ice-cold immunoprecipitation buffer and protein concentrations measured by the Bradford method. […]
# [5] = biological target: T1, FLNA from HPECs (Homo sapiens, UniProt P21333); test: Isoelectric focusing of purified FLNA (FLNA conformation); type: cell-based; settings: 1 nM; 4 days
# T1 construct: FLNA was purified separately from MiaPaCa2 cells and from HPECs; endogenous in cells; host or cells: primary human pancreatic epithelial cells (HPEC)
# T1 sequence (P21333 whole entry): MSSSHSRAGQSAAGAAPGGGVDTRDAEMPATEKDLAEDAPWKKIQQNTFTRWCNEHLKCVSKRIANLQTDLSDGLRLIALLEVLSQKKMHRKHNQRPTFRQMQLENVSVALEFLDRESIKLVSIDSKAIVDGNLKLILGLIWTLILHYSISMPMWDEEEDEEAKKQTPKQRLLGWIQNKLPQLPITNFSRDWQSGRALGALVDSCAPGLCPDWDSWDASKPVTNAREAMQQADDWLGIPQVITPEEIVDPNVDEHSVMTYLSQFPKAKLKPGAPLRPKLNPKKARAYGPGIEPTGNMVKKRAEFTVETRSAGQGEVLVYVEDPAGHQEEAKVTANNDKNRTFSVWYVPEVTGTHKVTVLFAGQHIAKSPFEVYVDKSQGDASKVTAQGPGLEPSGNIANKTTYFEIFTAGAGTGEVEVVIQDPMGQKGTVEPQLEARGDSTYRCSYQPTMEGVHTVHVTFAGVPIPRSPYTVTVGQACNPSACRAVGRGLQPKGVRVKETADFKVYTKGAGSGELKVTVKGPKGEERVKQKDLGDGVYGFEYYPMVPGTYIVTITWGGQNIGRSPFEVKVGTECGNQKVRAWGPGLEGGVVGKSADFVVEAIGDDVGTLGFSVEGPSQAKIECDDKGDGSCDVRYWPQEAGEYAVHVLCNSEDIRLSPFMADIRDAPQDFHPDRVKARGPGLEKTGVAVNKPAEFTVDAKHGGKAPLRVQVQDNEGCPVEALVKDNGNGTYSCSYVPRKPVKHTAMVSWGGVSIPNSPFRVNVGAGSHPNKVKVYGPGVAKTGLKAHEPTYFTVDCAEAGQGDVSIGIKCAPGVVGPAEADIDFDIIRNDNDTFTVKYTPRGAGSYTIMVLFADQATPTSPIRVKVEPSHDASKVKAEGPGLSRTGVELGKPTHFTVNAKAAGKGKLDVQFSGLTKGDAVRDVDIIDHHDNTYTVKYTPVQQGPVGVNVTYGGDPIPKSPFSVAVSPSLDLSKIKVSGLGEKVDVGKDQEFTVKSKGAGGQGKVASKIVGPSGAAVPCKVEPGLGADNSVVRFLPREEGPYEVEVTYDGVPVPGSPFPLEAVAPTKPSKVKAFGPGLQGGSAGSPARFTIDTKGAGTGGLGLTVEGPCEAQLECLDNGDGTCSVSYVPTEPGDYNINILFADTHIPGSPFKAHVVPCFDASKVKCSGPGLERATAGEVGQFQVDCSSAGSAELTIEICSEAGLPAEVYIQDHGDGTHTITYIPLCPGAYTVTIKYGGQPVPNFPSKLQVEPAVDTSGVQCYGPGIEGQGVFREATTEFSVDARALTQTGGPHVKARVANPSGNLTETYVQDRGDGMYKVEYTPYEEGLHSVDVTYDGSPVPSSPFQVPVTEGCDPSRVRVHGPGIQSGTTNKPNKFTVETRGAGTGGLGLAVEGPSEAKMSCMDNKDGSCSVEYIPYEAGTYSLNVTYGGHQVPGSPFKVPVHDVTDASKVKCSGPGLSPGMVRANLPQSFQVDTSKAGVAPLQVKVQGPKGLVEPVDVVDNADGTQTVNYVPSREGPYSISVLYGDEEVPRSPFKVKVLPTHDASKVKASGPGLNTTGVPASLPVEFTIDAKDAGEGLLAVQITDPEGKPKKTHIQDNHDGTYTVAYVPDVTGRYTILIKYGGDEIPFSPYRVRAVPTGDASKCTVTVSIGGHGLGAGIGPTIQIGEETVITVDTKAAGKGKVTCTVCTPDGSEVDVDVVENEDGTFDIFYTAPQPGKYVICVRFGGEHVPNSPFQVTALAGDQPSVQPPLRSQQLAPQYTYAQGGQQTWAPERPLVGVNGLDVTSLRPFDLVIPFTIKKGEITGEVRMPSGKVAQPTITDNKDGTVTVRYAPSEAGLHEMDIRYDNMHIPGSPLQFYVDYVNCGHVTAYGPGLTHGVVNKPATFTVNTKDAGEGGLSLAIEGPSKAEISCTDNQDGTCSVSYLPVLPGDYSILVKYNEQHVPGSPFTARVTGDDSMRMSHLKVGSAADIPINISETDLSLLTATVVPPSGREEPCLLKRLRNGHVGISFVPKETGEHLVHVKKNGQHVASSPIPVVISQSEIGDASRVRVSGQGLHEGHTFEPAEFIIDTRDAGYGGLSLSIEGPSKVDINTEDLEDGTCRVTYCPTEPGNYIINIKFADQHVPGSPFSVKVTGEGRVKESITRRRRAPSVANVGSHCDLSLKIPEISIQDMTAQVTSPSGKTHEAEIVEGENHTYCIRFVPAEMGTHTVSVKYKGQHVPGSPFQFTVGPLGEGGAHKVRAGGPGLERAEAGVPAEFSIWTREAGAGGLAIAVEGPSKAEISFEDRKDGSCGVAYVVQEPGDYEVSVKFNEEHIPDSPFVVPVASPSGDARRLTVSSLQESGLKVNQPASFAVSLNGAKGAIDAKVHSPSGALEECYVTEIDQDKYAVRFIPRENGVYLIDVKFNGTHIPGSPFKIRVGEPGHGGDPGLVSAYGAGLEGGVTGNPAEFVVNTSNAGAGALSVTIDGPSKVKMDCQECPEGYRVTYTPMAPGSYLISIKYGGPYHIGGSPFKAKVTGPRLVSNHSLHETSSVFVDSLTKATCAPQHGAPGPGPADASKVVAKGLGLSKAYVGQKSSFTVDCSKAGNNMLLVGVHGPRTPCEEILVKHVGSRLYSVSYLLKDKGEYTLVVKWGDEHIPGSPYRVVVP
# Description: (§2) FIGS. 33A and 33B show isoelectric focusing result data (FIG. 33A) for FLNA separately isolated from HPEC and MiaPaCa2 cells after four days of incubation (contact) of those cells with medium alone or medium plus 1 nM Compound C0105. […] N=4, *p<0.01.
# (§3) To determine whether the conformation of FLNA is different in cancer and primary normal cells and whether Compound C0105 affects FLNA conformation, FLNA was purified from cancer and primary cells after incubation with vehicle or 1 nM Compound C0105 for 4 days. Cells were washed with PBS, scraped, sonicated for 10 seconds and solubilized using 0.5% digitonin/0.2% sodium cholate/0.5% NP-40 at 4° C. with end-over-end rotation for 1 hour. Following centrifugation to remove insoluble debris, the obtained lysate was treated with 1% SDS for 1 minute to dissociate the […] proteins, diluted 10-fold with immunoprecipitation buffer, and immunopurified with immobilized anti-FLNA. The resultant FLNA was eluted using 200 μl antigen-elution buffer (Thermo), neutralized immediately with 100 mM Tris HCl (pH9.0), diluted to 500 μl with 50 mM Tris HCl, pH7.5, and passed through a 100 kD cut-off filter.
# (§4) The purified FLNA was suspended in the 100 μl isoelectric focusing sample buffer. […]
# [6] = biological target: T2, FLNA from MiaPaCa2 cells (Homo sapiens, UniProt P21333); test: as above; type: cell-based; settings: 1 nM; 4 days
# T2 construct: FLNA was purified separately from MiaPaCa2 cells and from HPECs; endogenous in cells; host or cells: MiaPaCa2 (MIA PaCa-2, ATCC CRL-1420)
# T2 sequence (P21333 whole entry): as above
# Description: as §2, §3, §4
smiles,measurement,setting,value
CN1CCC2(CC1)NCC(=O)N2Cc1ccccc1 [Compound C0105],Basal glucose uptake,[1],dose-dependent inhibition of basal glucose uptake
same,Basal glucose uptake,[2],dose-dependent inhibition of basal glucose uptake
same,Cell proliferation (Ki67 and PCNA levels),[3],reduces cell proliferation
same,Cell proliferation (Ki67 and PCNA levels),[4],had no effect
same,pI of FLNA,[5],no effect on the pI
same,Fraction of FLNA restored to the conformation (pI) present in HPECs,[6],about 75%
